A word on the inhibition: it is how much of the control response was suppressed. Lower therefore signals a weak effect. For orientation: IC50 means the concentration that gives 50% inhibition.

Molecules are shown by their SMILES.

Sequence of BTK (Q06187 whole entry): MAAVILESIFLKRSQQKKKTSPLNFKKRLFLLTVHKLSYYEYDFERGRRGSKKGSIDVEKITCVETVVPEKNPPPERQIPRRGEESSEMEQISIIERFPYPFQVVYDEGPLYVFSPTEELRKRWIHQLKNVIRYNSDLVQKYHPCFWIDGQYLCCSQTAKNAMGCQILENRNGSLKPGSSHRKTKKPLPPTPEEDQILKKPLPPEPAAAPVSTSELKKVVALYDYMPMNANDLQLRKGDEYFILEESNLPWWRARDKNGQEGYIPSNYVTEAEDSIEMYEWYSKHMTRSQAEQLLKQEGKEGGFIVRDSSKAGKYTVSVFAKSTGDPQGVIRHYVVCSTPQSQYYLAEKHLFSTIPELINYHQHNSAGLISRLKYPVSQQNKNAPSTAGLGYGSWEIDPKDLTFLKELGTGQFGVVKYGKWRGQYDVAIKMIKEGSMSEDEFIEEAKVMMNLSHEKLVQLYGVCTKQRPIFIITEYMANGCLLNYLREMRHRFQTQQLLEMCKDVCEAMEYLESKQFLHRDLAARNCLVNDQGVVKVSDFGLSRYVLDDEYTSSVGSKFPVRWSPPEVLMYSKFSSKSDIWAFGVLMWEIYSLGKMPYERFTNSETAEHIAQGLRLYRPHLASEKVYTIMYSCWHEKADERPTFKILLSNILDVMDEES

The first experiment has as its target BTK (Homo sapiens (Human), UniProt Q06187). Put plainly: Z'-LYTE kinase inhibition assay against BTK. In kind it is biochemical. The note with it: compound at 100 nM; ATP concentration at Km. As for the experimental part: Inhibitory activities of compounds against BTK, EGFR T790M, EGFR L858R, and EGFR L858R/T790M were measured using Z′-LYTE® Method from Life Technologies as briefly described in the following.
Test Compounds are screened in 1% DMSO (final) in the well. For 10 point titrations, 3-fold serial dilutions are conducted from the starting concentration. All ATP Solutions are diluted to a 4× working concentration in Kinase Buffer (50 mM HEPES pH 7.5, 0.01% BRIJ-35, 10 mM MgCl2, 1 mM EGTA). Peptide/Kinase Mixtures are diluted to a 2× working concentration in the appropriate Kinase Buffers as described below. • (i) Peptide/Kinase Mixtures for measurement of EGFR (ErbB1) L858R: • The 2×EGFR (ErbB1) L858R/Tyr 04 mixture is prepared in 50 mM HEPES pH 7.5, 0.01% BRIJ-35, 10 mM MgCl2, 4 mM MnCl2. 1 mM EGTA, 2 mM DTT. The final 10 μL Kinase Reaction consists of 0.2-1.68 ng EGFR (ErbB1) L858R and 2 μM Tyr 04 in 50 mM HEPES pH 7.5, 0.01% BRIJ-35, 10 mM MgCl2, 2 mM MnCl2, 1 mM EGTA, 1 mM DTT. After the 1 hour Kinase Reaction incubation, 5 μL of a 1:64 dilution of Development Reagent B is added. • (ii) Peptide/Kinase Mixtures for measurement of EGFR (ErbB1) T790M: The 2×EGFR (ErbB1) T790M/Tyr 04 mixture is prepared in 50 mM HEPES pH 6.5, 0.01% BRIJ-35, 10 mM MgCl2, 1 mM EGTA, 0.02% NaN3. The final 10 μL Kinase Reaction consists of 3.9-30.2 ng EGFR (ErbB1) T790M and 2 μM Tyr 04 in 50 mM HEPES pH 7.0, 0.01% BRIJ-35, 10 mM MgCl2, 1 mM EGTA, 0.01% NaN3. After the 1 hour Kinase Reaction incubation, 5 μL of a 1:64 dilution of Development Reagent B is added. • (iii) Peptide/Kinase Mixtures for measurement of EGFR (ErbB1) L858R/T790M: The 2×EGFR (ErbB1) T790M L858R/Tyr 04 mixture is prepared in 50 mM HEPES pH 6.5, 0.01% BRIJ-35, 10 mM MgCl2, 1 mM EGTA, 0.02% NaN3. The final 10 μL Kinase Reaction consists of 0.38-4.22 ng EGFR (ErbB1) T790M L858R and 2 μM Tyr 04 in 50 mM HEPES pH 7.0, 0.01% BRIJ-35, 10 mM MgCl2, 1 mM EGTA, 0.01% NaN3. After the 1 hour Kinase Reaction incubation, 5 μL of a 1:64 dilution of Development Reagent B is added. • (iv) Peptide/Kinase Mixtures for measurement of BTK: The 2×BTK/Tyr 01 mixture is prepared in 50 mM HEPES pH 7.5, 0.010/BRIJ-35, 10 mM MgCl2, 1 mM EGTA. The final 10 μL Kinase Reaction consists of 1.04-10.4 ng BTK and 2 μM Tyr 01 in 50 mM HEPES pH 7.5, 0.01% BRIJ-35, 10 mM MgCl2, 1 mM EGTA. After the 1 hour Kinase Reaction incubation, 5 μL of a 1:256 dilution of Development Reagent B is added.
Reaction starts by 30-second shaking of mixture consisting of 2.5 μL 4× test compound, 5 μL 2× kinase reaction mixture and 2.5 μL 4×ATP Solution on Bar-coded Corning, low volume NBS, black 384-well plate (Corning Cat. #3676). Then the mixture is incubated for 60-minute at room temperature for the kinase reaction, followed by addition of 5 μL of a 1:1024 dilution of development reagent A and 30-second plate shake. The mixture is then incubated for another 60-minute at room temperature for development reaction. Finally fluorescence is read by plate reader.
The Z′-LYTE assay was carried out with ATP concentration at Km. The scale utilized in Tables 2-6 is as follows: ++ more than 50% inhibition and + less than 50% inhibition.
To determine IC50 of a compound against a kinase, a series of concentrations of the compound were tested for the inhibition. IC50 was calculated by plotting the concentration of compound vs the percentage of inhibition in treated wells using GraphPad Prism 5. […] The scale utilized in Table 7 is as follows: ++ less than 100 nM and + greater than 100 nM.
The molecule `C=CC(=O)N1CCC(c2cc(-c3ccc(C(=O)Nc4ccccc4)nc3)cc3cncnc23)C1` (stereo not shown) [C060, 5-(8-(1-acryloylpyrrolidin-3-yl)quinazolin-6-yl)-N-phenylpicolinamide] yielded an inhibition at 0.1 µM of under 50%.

The molecule `C=CC(=O)Nc1cccc(-c2cc(-c3ccc(Oc4ccccc4)nc3)cc3cncnc23)c1` [C061, N-(3-(6-(6-phenoxypyridin-3-yl)quinazolin-8-yl)phenyl)acrylamide] gave an inhibition at 0.1 µM of over 50%.

In the case of `C=CC(=O)N1CCC(c2cc(-c3ccc(C(=O)Nc4ccccc4)cc3)cc3cncnc23)C1` (stereo not shown) [C062, 4-(8-(1-acryloylpyrrolidin-3-yl)quinazolin-6-yl)-N-phenylbenzamide], the inhibition at 0.1 µM was under 50%.

On to `C=CC(=O)N1CCC(c2cc(-c3ccc(Oc4ccccc4)cc3)n3cnccc23)C1` (stereo not shown) [C063, 1-(3-(7-(4-phenoxyphenyl)pyrrolo[1,2-c]pyrimidin-5-yl)pyrrolidin-1-yl)prop-2-en-1-one], for which the inhibition at 0.1 µM is over 50%.

Consider `C=CC(=O)N1CCC(c2cc(-c3cncc(C(F)(F)F)c3)cc3cncnc23)C1` (stereo not shown) [C066, 1-(3-(6-(5-(trifluoromethyl)pyridin-3-yl)quinazolin-8-yl)pyrrolidin-1-yl)prop-2-en-1-one], for which the inhibition at 0.1 µM was under 50%.

`C=CC(=O)N1CCC(c2cc(-c3ccc(C(=O)Nc4ccccn4)cc3Cl)cc3cncnc23)C1` (stereo not shown) [C067, 4-(8-(1-acryloylpyrrolidin-3-yl)quinazolin-6-yl)-3-chloro-N-(pyridin-2-yl)benzamide] displayed an inhibition at 0.1 µM of over 50%.

For the molecule `C=CC(=O)N1CCC(c2cc(-c3ccc(C(=O)Nc4cccc(C(F)(F)F)c4)cc3)cc3cncnc23)C1` (stereo not shown) [C068, 4-(8-(1-acryloylpyrrolidin-3-yl)quinazolin-6-yl)-N-(3-(trifluoromethyl)phenyl)benzamide], the inhibition at 0.1 µM is under 50%.

`C=CC(=O)Nc1cccc(-c2cc(-c3ccc(C(=O)Nc4ccccn4)nc3)cc3cncnc23)c1` [C069, 5-(8-(3-acrylamidophenyl)quinazolin-6-yl)-N-(pyridin-2-yl)picolinamide] gave an inhibition at 0.1 µM of over 50%.

`C=CC(=O)Nc1cccc(-c2cc(-c3ccc(C(=O)Nc4cccc(C)c4)nc3)cc3cncnc23)c1` [C070, 5-(8-(3-acrylamidophenyl)quinazolin-6-yl)-N-(m-tolyl)picolinamide] had an inhibition at 0.1 µM of under 50%.

With `C=CC(=O)Nc1cccc(-c2cc(-c3ccc(C(=O)Nc4cccc(C(F)(F)F)c4)nc3)cc3cncnc23)c1` [C071, 5-(8-(3-acrylamidophenyl)quinazolin-6-yl)-N-(3-(trifluoromethyl)phenyl)picolinamide], the inhibition at 0.1 µM was over 50%.

Take `C=CC(=O)Nc1cccc(-c2cc(-c3ccc(Oc4ccc(Cl)cc4)nc3)cc3cncnc23)c1` [C072, N-(3-(6-(6-(4-chlorophenoxy)pyridin-3-yl)quinazolin-8-yl)phenyl)acrylamide]: the inhibition at 0.1 µM was under 50%.

As for `C=CC(=O)Nc1cccc(-c2cc(-c3ccccc3C#N)cc3cncnc23)c1` [C075, N-(3-(6-(2-cyanophenyl)quinazolin-8-yl)phenyl)acrylamide], the inhibition at 0.1 µM was over 50%.

Molecule `C=CC(=O)N1CCC(c2cc(-c3ccc(Oc4ccccc4)nc3)cc3cncnc23)C1` (stereo not shown) [C077, 1-(3-(6-(6-phenoxypyridin-3-yl)quinazolin-8-yl)pyrrolidin-1-yl)prop-2-en-1-one] came in with an inhibition at 0.1 µM of under 50%.

In the case of `C=CC(=O)N1CCC(c2cc(-c3ccc(Oc4ccccc4)cc3)cc3cnc(N)nc23)C1` (stereo not shown) [C078, 1-(3-(2-amino-6-(4-phenoxyphenyl)quinazolin-8-yl)pyrrolidin-1-yl)prop-2-en-1-one], the inhibition at 0.1 µM was over 50%.

Take `C=CC(=O)N1CCC(c2cc(-c3ccc(C(=O)Nc4ccccn4)cc3)cc3cncnc23)C1` (stereo not shown) [C079, 4-(8-(1-acryloylpyrrolidin-3-yl)quinazolin-6-yl)-N-(pyridin-2-yl)benzamide]: the inhibition at 0.1 µM is under 50%.

For `C=CC(=O)N1CCC(c2cc(-c3ccc(C(=O)Nc4cccc(C)c4)nc3)cc3cncnc23)C1` (stereo not shown) [C080, 5-(8-(1-acryloylpyrrolidin-3-yl)quinazolin-6-yl)-N-(m-tolyl)picolinamide], the inhibition at 0.1 µM was under 50%.

`C=CC(=O)Nc1cccc(-c2cc(-c3ccc(Oc4cccc(C(F)(F)F)c4)nc3)cc3cncnc23)c1` [C081, N-(3-(6-(6-(3-(trifluoromethyl)phenoxy)pyridin-3-yl)quinazolin-8-yl)phenyl)acrylamide] yielded an inhibition at 0.1 µM of over 50%.

`C=CC(=O)N1CCC(c2cc(-c3ccc(Oc4cccc(C(F)(F)F)c4)nc3)cc3cncnc23)C1` (stereo not shown) [C082, 1-(3-(6-(6-(3-(trifluoromethyl)phenoxy)pyridin-3-yl)quinazolin-8-yl)pyrrolidin-1-yl)prop-2-en-1-one] came in with an inhibition at 0.1 µM of under 50%.

`C=CC(=O)N1CCC(c2cc(-c3ccccc3)cc3cnc(N)nc23)C1` (stereo not shown) [C083, 1-(3-(2-amino-6-phenylquinazolin-8-yl)pyrrolidin-1-yl)prop-2-en-1-one] had an inhibition at 0.1 µM of under 50%.

In the case of `C=CC(=O)N1CCC(c2cc(-c3ccccc3F)cc3cncnc23)C1` (stereo not shown) [C084, 1-(3-(6-(2-fluorophenyl)quinazolin-8-yl)pyrrolidin-1-yl)prop-2-en-1-one], the inhibition at 0.1 µM was under 50%.

The molecule `C=CC(=O)N1CCC(c2cc(-c3ccccc3F)cc3cnc(N)nc23)C1` (stereo not shown) [C085, 1-(3-(2-amino-6-(2-fluorophenyl)quinazolin-8-yl)pyrrolidin-1-yl)prop-2-en-1-one] gave an inhibition at 0.1 µM of under 50%.

Molecule `C=CC(=O)Nc1cccc(-c2cc(-c3ccc(Oc4cccc(F)c4)nc3)cc3cncnc23)c1` [C086, N-(3-(6-(6-(3-fluorophenoxy)pyridin-3-yl)quinazolin-8-yl)phenyl)acrylamide] had an inhibition at 0.1 µM of over 50%.

On to `C=CC(=O)Nc1cccc(-c2cc(-c3ccc(C(=O)Nc4ccccn4)cc3F)cc3cncnc23)c1` [C087, 4-(8-(3-Acrylamidophenyl)quinazolin-6-yl)-3-fluoro-N-(pyridin-2-yl)benzamide], for which the inhibition at 0.1 µM is under 50%.

The molecule `C=CC(=O)Nc1cccc(-c2cc(-c3ccc(Oc4cc(C(F)(F)F)ccn4)cc3Cl)cc3cncnc23)c1` [C088, N-(3-(6-(2-chloro-4-((4-(trifluoromethyl)pyridin-2-yl)oxy)phenyl)quinazolin-8-yl)phenyl)acrylamide] came in with an inhibition at 0.1 µM of over 50%.

`C=CC(=O)Nc1cccc(-c2cc(-c3ccc(C(=O)Nc4ccccc4)cc3F)cc3cncnc23)c1` [C089, 4-(8-(3-Acrylamidophenyl)quinazolin-6-yl)-3-fluoro-N-phenylbenzamide]: the inhibition at 0.1 µM was over 50%.

For `C=CC(=O)N1CCC(c2cc(-c3ccc(Oc4cc(C(F)(F)F)ccn4)cc3F)cc3cncnc23)C1` (stereo not shown) [C090, 1-(3-(6-(2-Fluoro-4-((4-(trifluoromethyl)pyridin-2-yl)oxy)phenyl)quinazolin-8-yl)pyrrolidin-1-yl)prop-2-en-1-one], the inhibition at 0.1 µM is under 50%.

The experiment is the same for the next values; noted with them: series of concentrations; GraphPad Prism 5.
For `C=CC(=O)Nc1cccc(-c2cc(-c3ccc(Oc4ccccc4)nc3)cc3cncnc23)c1` [C061, N-(3-(6-(6-phenoxypyridin-3-yl)quinazolin-8-yl)phenyl)acrylamide], the concentration for half-maximal inhibition (IC50) is under 100 nM.

`C=CC(=O)N1CCC(c2cc(-c3ccc(C(=O)Nc4ccccn4)cc3Cl)cc3cncnc23)C1` (stereo not shown) [C067, 4-(8-(1-acryloylpyrrolidin-3-yl)quinazolin-6-yl)-3-chloro-N-(pyridin-2-yl)benzamide] showed an IC50 of under 100 nM.

In turn, `C=CC(=O)Nc1cccc(-c2cc(-c3ccccc3C#N)cc3cncnc23)c1` [C075, N-(3-(6-(2-cyanophenyl)quinazolin-8-yl)phenyl)acrylamide] registered a concentration for half-maximal inhibition (IC50) of under 100 nM.

With `C=CC(=O)N1CCC(c2cc(-c3ccc(Oc4ccccc4)cc3)cc3cnc(N)nc23)C1` (stereo not shown) [C078, 1-(3-(2-amino-6-(4-phenoxyphenyl)quinazolin-8-yl)pyrrolidin-1-yl)prop-2-en-1-one], the IC50 was under 100 nM.

`C=CC(=O)Nc1cccc(-c2cc(-c3ccc(Oc4cccc(F)c4)nc3)cc3cncnc23)c1` [C086, N-(3-(6-(6-(3-fluorophenoxy)pyridin-3-yl)quinazolin-8-yl)phenyl)acrylamide] had a 50% inhibitory concentration (IC50) of under 100 nM.

For the origin of these results see patent US10544106B2, “Certain chemical entities, compositions, and methods” (NeuPharma, Inc., priority 2016, dated 2020).
